# Results reported in PubChem BioAssay AID1959 (Broad Institute, 2009).
# Calls of active or inactive are those of the source.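 Rule for the calls: active = growth-inhibition EC50 no more than tenfold above the top tested dose; inconclusive = flat fit between 30% and 70% inhibition, or unreliable fit; inactive = EC50 more than tenfold above the top tested dose.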
# System: E. coli NEB5alpha growth, BacTiter-Glo luminescence, 4 h
# Assay: Escherichia coli growth inhibition, dose response, counter-screen for MEX-5/POS-1 RNA-binding inhibitor project, luminescence, NEB5alpha (AID 1959);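 note: pUC19-transformed ampicillin-resistant cells grown in LB with ampicillin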
row,Compound,EC50
1,C=CCOc1cccc(C2C(C(=O)c3ccco3)=C(O)C(=O)N2Cc2ccco2)c1 (stereo not drawn),> 11 µM (inactive)
2,CCCC1Nc2ccc(C(=O)O)cc2C2C=CCC12 (stereo not drawn),> 11 µM (inactive)
3,Cc1cc(C(=O)O)ccc1-n1c(C)cc(C=C2C(=O)c3ccccc3C2=O)c1C,> 11 µM (inactive)
4,N=c1c(C(=O)NCC2CCCO2)cc2c(=O)n3ccccc3nc2n1Cc1cccnc1 (stereo not drawn),> 11 µM (inactive)
5,O=C(NNC(=O)c1cnccn1)c1ccc(Cl)cc1,> 11 µM (inactive)
6,Cc1cc(C)cc(-n2c(O)c(C=Nc3ccc(N4CCOCC4)cc3)c(=O)[nH]c2=S)c1,> 11 µM (inactive)
7,Cc1ccc(/C=C/C(=O)c2ccc(N3CCOCC3)cc2)s1,> 11 µM (inactive)
8,Cc1cccn2c(=O)c3cc(C(=O)NCc4ccco4)c(=N)n(C(C)C)c3nc12,> 11 µM (inactive)
9,CC1=CC(C#N)(C#N)C(C#N)(C#N)C(c2ccccc2)N1 (stereo not drawn),> 11 µM (inactive)
10,Cc1ccc(NC(=S)c2ccc3ccccc3n2)c(C)c1,> 11 µM (inactive)
11,COc1cccc(C2C3CN(C)CC=C3C(C#N)=C(N)C2(C#N)C#N)c1OC (stereo not drawn),> 11 µM (inactive)
12,CC(C)(C)C(=O)c1sc2nc(-c3cccs3)cc(C(F)(F)F)c2c1N,> 11 µM (inactive)
13,CC(C)N1CCc2c(sc(NC(=O)c3ccc4ccccc4c3)c2C(N)=O)C1,> 11 µM (inactive)
14,Cc1cc(/C=C2\SC(=S)N(Cc3ccco3)C2=O)c(C)n1-c1cccnc1,> 11 µM (inactive)
15,N#Cc1c(N)nc(SCc2ccncc2)c(C#N)c1-c1cccs1,> 11 µM (inactive)
16,Cc1nonc1OCCNCCNc1ccc([N+](=O)[O-])c2cccnc12,> 11 µM (inactive)
17,Cc1ccc(S(=O)(=O)N2CCOCC2)cc1NC(=O)CN(C)C1CCS(=O)(=O)C1 (stereo not drawn),> 11 µM (inactive)
18,COc1cc2[nH]c(C(=O)NN)c(N)c2cc1OC,> 11 µM (inactive)
19,CC1=NOC(=O)/C1=C\c1ccc2c(c1)OCO2,> 11 µM (inactive)
20,Cc1ccc2[nH]c(O)c(N=Nc3ccccc3C)c2c1,> 11 µM (inactive)
21,Nc1nc(Sc2ccc([N+](=O)[O-])cc2[N+](=O)[O-])n[nH]1,> 11 µM (inactive)
22,O=C1C2CC=C(Cl)CC2C(=O)N1CCCCCCN1C(=O)C2CC=C(Cl)CC2C1=O (stereo not drawn),> 11 µM (inactive)
23,Cc1ccc(NC(=O)CN2C(=O)S/C(=C\c3cc(C)n(-c4cccc(C(=O)O)c4)c3C)C2=O)cc1,> 11 µM (inactive)
24,CCCNC(=O)c1ccc2c(=O)c(O)c(-c3cccc(Br)c3)[nH]c2c1,> 11 µM (inactive)

row,Compound,EC50
1,Cc1cccn2c(=O)c3cc(C(=O)NCCN4CCOCC4)c(=N)n(Cc4cccnc4)c3nc12,> 11 µM (inactive)
2,Nc1cc(C(=O)O)c(N)c2c1C(=O)c1ccccc1C2=O,> 11 µM (inactive)
3,COC(=O)C1=C(C)N(c2ccccc2)/C(=C/c2ccco2)C1=O,> 11 µM (inactive)
4,CCCCCCCCCCCCCCCCn1cc[n+](C)c1,9.41 µM
5,CCOC(=O)c1c(-c2ccccc2)csc1NC(=O)/C(C#N)=C/c1ccc(OC)c(OC)c1,> 11 µM (inactive)
6,Cc1cc(/C=C2\C(=O)NC(=O)N(c3ccc(Cl)cc3)C2=O)c(C)n1C,> 11 µM (inactive)
7,CC(C)c1nnc(N2C(=O)C(O)=C(C(=O)c3cccs3)C2c2ccccc2)s1 (stereo not drawn),> 11 µM (inactive)
8,CCC(NC(C)C)C(O)c1ccc(O)c(O)c1 (stereo not drawn),> 11 µM (inactive)
9,COC(=O)CCCC1=CC2=CC(=O)C(C)(OC(=O)CCc3ccccc3)C(=O)C2=CO1 (stereo not drawn),> 11 µM (inactive)
10,COc1cccc(NC(=O)C(=O)c2cn(CC(=O)N3CCOCC3)c3ccccc23)c1,> 11 µM (inactive)
11,Cc1cc(=O)[nH]c(N/N=C/c2ccc(O)c(O)c2)n1,> 11 µM (inactive)
12,COc1ccc(C2C(C#N)=C(N)OC3=C2C(=O)CC(C)(C)C3)cc1Cn1cc([N+](=O)[O-])cn1 (stereo not drawn),> 11 µM (inactive)
13,COc1ccc(C2=CC3=C(Br)C(=O)C(C)(OC(=O)c4ccco4)C(=O)C3=CO2)cc1 (stereo not drawn),> 11 µM (inactive)
14,CCOC(=O)/C=c1\s/c(=C\c2ccc3cc(OC)ccc3c2)c(=O)n1CC(=O)NCC1CCCO1 (stereo not drawn),> 11 µM (inactive)
15,COc1ccc(CCCc2nc3ccccc3[nH]2)cc1,> 11 µM (inactive)
16,CC1CC=C2C(C#N)=C(N)C(C#N)(C#N)C(c3cccs3)C2C1 (stereo not drawn),> 11 µM (inactive)
17,O=C(O)C1Nc2c(O)cc(Cl)c([N+](=O)[O-])c2C2C=CCC12 (stereo not drawn),> 11 µM (inactive)
18,Cc1cccc(-n2c(C)cc(C=C3C(=O)c4ccccc4C3=O)c2C)c1,> 11 µM (inactive)
19,COc1cc([C@H](Cc2ccccc2)NC(C)=O)oc(=O)c1,> 11 µM (inactive)
20,CC(C)c1ccc(C2C(C#N)=C(N)N3C(=C2C#N)Sc2ccccc23)cc1 (stereo not drawn),> 11 µM (inactive)
21,FC(F)(F)c1cc(C(F)(F)F)n2nc(-c3sccc3-n3cccc3)cc2n1,> 11 µM (inactive)
22,O=c1/c(=C\c2ccc(O)cc2)sc2nc(-c3ccccc3)c(-c3ccccc3)n12,> 11 µM (inactive)
23,Cc1cc(C)cc(N2C(=O)NC(=O)/C(=C\c3cc(C)n(C)c3C)C2=O)c1,> 11 µM (inactive)
24,O=C1C(Cl)=C(Nc2ccccc2O)C(=O)N1c1ccccc1,> 11 µM (inactive)

row,Compound,EC50
1,N=c1c(S(=O)(=O)c2ccc(Br)cc2)cc2c(=O)n3ccccc3nc2n1C1CCCCC1,> 11 µM (inactive)
2,COc1ccc(OC)c(N=Cc2c(O)c3ccccc3oc2=O)c1,> 11 µM (inactive)
3,CC1=N/C(=C/c2ccco2)C(=O)O1,> 11 µM (inactive)
4,N#C/C(=N\Nc1ccc(Cl)cc1)C(=O)c1ccsc1,> 11 µM (inactive)
5,CCOC(=O)c1c2c3c(cccc3n(C)c1=O)C(=O)c1ccccc1-2,> 11 µM (inactive)
6,CN1C(=O)C(=Cc2ccc(Sc3ccccc3)o2)C(=O)N(C)C1=S,> 11 µM (inactive)
7,Cc1ccc(N=Cc2nc(-c3ccc(C)cc3)oc2O)cc1,> 11 µM (inactive)
8,COc1cc2c(cc1/C=C1/NC(=O)N(c3ccccc3)C1=O)OCO2,> 11 µM (inactive)
9,COc1ccc(-n2cc(CNCc3cnc4ccccn34)c(-c3cccc(F)c3)n2)cc1,> 11 µM (inactive)
10,O=C1NC(=O)N(c2ccccc2)C(=O)/C1=C/c1coc2ccc(O)cc2c1=O,> 11 µM (inactive)
11,CCOC(=O)Cn1c(=O)c(-c2cc(Br)ccc2N)nc2ccccc21,> 11 µM (inactive)
12,CN(C)c1ccc(-c2nnc(-c3ccc(S(=O)(=O)C(F)F)cc3)o2)cc1,> 11 µM (inactive)
13,N=C1C(c2nc3ccccc3[nH]2)=C(O)CN1c1ccc(CC(=O)O)cc1,> 11 µM (inactive)
14,COc1ccc(NC(=O)/C=C/c2cccc(Br)c2)cn1,> 11 µM (inactive)
15,Cc1cccn2c(=O)c3cc(C(=O)NC4CCCCC4)c(=N)n(Cc4ccccc4)c3nc12,> 11 µM (inactive)
16,Cc1ccc(NC(=O)CN2C(=O)S/C(=C\c3cccn3-c3cccc(C(=O)O)c3)C2=O)cc1C,> 11 µM (inactive)
17,O=c1ccc2[n+]([O-])c3ccc(O)cc3oc-2c1,> 11 µM (inactive)
18,O=C(CN1CCC(n2nnc3cc(F)ccc32)CC1)NCCc1ccccc1,> 11 µM (inactive)
19,COc1c(O)cccc1[C@H](O)C1CCN(CCc2ccc(F)cc2)CC1,> 11 µM (inactive)
20,CC1=CC(C)(C)N2C(=O)C3(C(C#N)=C(N)OC4=C3C(=O)CC(C)(C)C4)c3cccc1c32 (stereo not drawn),> 11 µM (inactive)
21,CCOCCCn1c(=NC(=O)c2ccc(OC)c(OC)c2)c(C#N)cc2c(=O)n3cccc(C)c3nc21,> 11 µM (inactive)
22,CC(C)(C)OC(=O)NC(Cc1ccccc1)C(=O)N1CCC(C(=O)NCC(=O)Nc2ccc(F)cc2)CC1 (stereo not drawn),> 11 µM (inactive)
23,O=c1[nH]c(=O)n(-c2ccc(Br)cc2)c(O)c1C=NCCN1CCCCC1,> 11 µM (inactive)
24,O=C1Nc2cc(Cl)cnc2N2CCCC12 (stereo not drawn),> 11 µM (inactive)

row,Compound,EC50
1,C#CCOCCOCCOCCNc1nc(N2CCN(C(=O)[C@H]([C@@H](C)CC)n3cc([C@@H](N)CO)nn3)CC2)nc(N2CCN(C(=O)[C@H]([C@@H](C)CC)n3cc([C@@H](N)CC(C)C)nn3)CC2)n1,> 11 µM (inactive)
2,C[C@@H]1O[C@@H](OC2C(O)C(OCCc3ccc(O)c(O)c3)OC(CO)C2OC(=O)/C=C/c2ccc(O)c(O)c2)[C@H](O)[C@H](O)[C@H]1O (stereo partly drawn),> 11 µM (inactive)
3,COc1ccc(C(=O)c2sc3nc(C)cc(-c4cccs4)c3c2N)cc1OC,> 11 µM (inactive)
4,Cc1cc(/C=N/Nc2ccc([N+](=O)[O-])cn2)c(C)n1-c1cccc(C(=O)O)c1,> 11 µM (inactive)
5,COC(=O)c1ccc(-n2c(C)cc(C(=O)CCl)c2C)cc1,> 11 µM (inactive)
6,Cc1nc2ccc(N3CCN(C)CC3)cc2nc1C,> 11 µM (inactive)
7,CN1CCc2c(sc(NC(=O)c3ccc4ccccc4c3)c2C(N)=O)C1,> 11 µM (inactive)
8,COc1ccc(OC)c(S(=O)(=O)NC2CCN(Cc3ccccc3)CC2)c1,> 11 µM (inactive)
9,O=C(NCCOc1ccccc1)C1Nc2ccc(OC(F)(F)F)cc2C2C=CCC12 (stereo not drawn),> 11 µM (inactive)
10,CCOC(=O)c1c[nH]c2nc(C)ccc2c1=O,> 11 µM (inactive)
11,COc1ccc(OC)c(C2C(C(=O)c3ccco3)=C(O)C(=O)N2CCN2CCOCC2)c1 (stereo not drawn),> 11 µM (inactive)
12,COc1ccc(N=Cc2c(O)n(Cc3ccccc3)c(=S)[nH]c2=O)c(OC)c1,> 11 µM (inactive)
13,COc1ccc(NC(=O)c2sc3nc(-c4cccnc4)ccc3c2N)cc1OC,> 11 µM (inactive)
14,COc1ccc(C(=O)Nc2nnc(CC(=O)N/N=C/c3ccc(O)cc3O)s2)cc1,> 11 µM (inactive)
15,NC(CO)C(=O)NNCc1ccc(O)c(O)c1O (stereo not drawn),> 11 µM (inactive)
16,CC1(C)CC(=O)C2=C(C1)OC(N)=C(C#N)C2c1ccccc1 (stereo not drawn),> 11 µM (inactive)
17,O=[N+]([O-])c1ccccc1S(=O)(=O)n1nnc2ccccc21,> 11 µM (inactive)
18,CCC(C)/C=C(C)/C=C/C1=CC2=C(Cl)C(=O)C(C)(OC(C)=O)C(=O)C2=CO1 (stereo not drawn),> 11 µM (inactive)
19,Cc1cc(-c2ccccc2)nc(N/N=C/c2ccc(O)cc2O)n1,> 11 µM (inactive)
20,COc1cccc(C2c3c(oc4ccccc4c3=O)C(=O)N2Cc2ccco2)c1 (stereo not drawn),> 11 µM (inactive)
21,O=C(Cc1nc2ccccc2[nH]c1=O)c1ccccc1,> 11 µM (inactive)
